Test results published in patent publication US20240115555A1, “METHODS OF TREATING CANCER USING B-RAF INHIBITORS AND IMMUNE CHECKPOINT INHIBITORS” (Genentech, Inc., priority 2015, published 2024).

Legend:
[1] = tested on: unresectable or metastatic melanoma; conditions: two Phase III studies; cited from earlier work
[2] = fumarate salt; cited from earlier work
[3] = tested on: CD8+ T-cells; test: Tissue samples stained for CD8+ T-cells; type: in vivo, human; conditions: patient tissue samples, data not shown
Source text: (§1) Tissue samples were stained for CD8+ T-cells as well as PD-L1 expression. Treatment with vemurafenib alone increased immune tumor CD8+ T-cell infiltration (data not shown). Treatment with either vemurafenib alone or vemurafenib in combination with atezolizumab increased expression of PD-L1 on tumor cells as well as tumor-infiltrating immune cells (data not shown).

[4] = tested on: PD-L1; test: Tissue samples stained for PD-L1 expression; type: in vivo, human; conditions: patient tissue samples, data not shown
Source text: as §1

[5] = tested on: metastatic melanoma with the BRAFV600E mutation; conditions: cited from earlier work

Molecule: Ipilimumab: humanized immunoglobulin (Ig)G1 monoclonal antibody that blocks cytotoxic T-lymphocyte-associated antigen 4 (CTLA-4)
- median PFS [1]: 2.8 months
- overall response rate [1]: 10.9%

Molecule: O=C(c1ccc(F)c(F)c1Nc1ccc(I)cc1F)N1CC(O)([C@@H]2CCCCN2)C1 [Cobimetinib, (S)-(3,4-difluoro-2-(2-fluoro-4-iodophenylamino)phenyl)(3-hydroxy-3-(piperidin-2-yl)azetidin-1-yl)methanone]
- solubility [2]: pH dependent solubility

Molecule: CCCS(=O)(=O)Nc1ccc(F)c(C(=O)c2c[nH]c3ncc(-c4ccc(Cl)cc4)cc23)c1F [vemurafenib, propane-1-sulfonic acid {3-[5-(4-chlorophenyl)-1H-pyrrolo[2,3-b]pyridine-3-carbonyl]-2,4-difluoro-phenyl}-amide]
- immune tumor CD8+ T-cell infiltration [3]: increased
- expression of PD-L1 on tumor cells as well as tumor-infiltrating immune cells [4]: increased
- improvement in PFS ([5]; compared with dacarbazine): 74%
- reduction in the risk of death ([5]; compared with dacarbazine): 63%
- hazard ratio for death ([5]; in favor of vemurafenib vs dacarbazine, median follow-up of 12.5 months): 0.70 (95% CI: 0.57, 0.87)
- median OS ([5]; median follow-up of 12.5 months): 13.6 months
- Response rates ([5]; previously untreated, BRAFV600E mutation): 48%
- improvement in median OS ([5]; vs dacarbazine, median follow-up of 12.5 months): ~4 month
